Laboratory results reported in ChEMBL document CHEMBL1201862, “PubChem BioAssay data set” (2004).
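Compound exposure: 48 hours, 5 concentrations, 96-well plates. GI50 marks 50% less growth.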 The source made the active and inactive calls. No stated cut-off is given here; in the data, active = GI50 up to about 1.1 µM and inactive = higher.

What was measured:
Experiment in all cases: NCI anticancer screen, dose series, 48 h
HCT-15 = tested on: HCT-15
SF-295 = tested on: SF-295
HOP-62 = tested on: HOP-62
HOP-92 = tested on: HOP-92
M14 = tested on: M14
OVCAR-8 = tested on: OVCAR-8
SNB-75 = tested on: SNB-75
SW-620 = tested on: SW-620
PC-3 = tested on: PC-3
RPMI-8226 = tested on: RPMI-8226
NCI-H460 = tested on: NCI-H460
LOX IMVI = tested on: LOX IMVI
SK-MEL-28 = tested on: SK-MEL-28
Malme-3M = tested on: Malme-3M
OVCAR-5 = tested on: OVCAR-5
HT-29 = tested on: HT-29
UO-31 = tested on: UO-31
UACC-257 = tested on: UACC-257
EKVX = tested on: EKVX

SMILES | GI50 (HCT-15) [µM] | GI50 (SF-295) | GI50 (HOP-62) | GI50 (HOP-92) | GI50 (M14) | GI50 (OVCAR-8) | GI50 (SNB-75) | GI50 (SW-620) | GI50 (PC-3) | GI50 (RPMI-8226) | GI50 (NCI-H460) | GI50 (LOX IMVI) | GI50 (SK-MEL-28) | GI50 (Malme-3M) | GI50 (OVCAR-5) | GI50 (HT-29) | GI50 (UO-31) | GI50 (UACC-257) | GI50 (EKVX)
Cc1ccc(S(=O)(=O)N/N=C2/C3C(CC2(C)C)C2(C)CCCC3(C)C2O)cc1 (stereo not drawn) | 23.2 | 15.4 µM (inactive) | 30.1 µM (inactive) | 17.2 µM (inactive) | 22.9 µM (inactive) | 32.7 µM (inactive) | 17.7 µM (inactive) | > 10 µM (inactive) | 9.59 µM (inactive) | 35.6 µM (inactive) | 17.8 µM (inactive) | 13.4 µM (inactive) | 18.9 µM (inactive) | 24 µM (inactive) | > 10 µM (inactive) | 20.1 µM (inactive) | 26.2 µM (inactive) | 16.8 µM (inactive) | 45.7 µM (inactive)
O=C1Nc2ccccc2C1S(=O)(=O)c1ccccc1 (stereo not drawn) | > 100 | > 100 µM (inactive) | > 100 µM (inactive) | > 100 µM (inactive) | > 100 µM (inactive) | > 100 µM (inactive) | > 100 µM (inactive) | > 100 µM (inactive) | > 100 µM (inactive) | > 100 µM (inactive) | > 100 µM (inactive) | > 100 µM (inactive) | > 100 µM (inactive) | > 100 µM (inactive) | > 100 µM (inactive) | > 100 µM (inactive) | > 100 µM (inactive) | > 100 µM (inactive) | > 100 µM (inactive)
COc1ccc(CCc2ccc(O)c(C(=O)O)c2)cc1OC | 84.1 | > 100 µM (inactive) | > 100 µM (inactive) | > 100 µM (inactive) | > 100 µM (inactive) | > 100 µM (inactive) | 79.6 µM (inactive) | > 10 µM (inactive) | > 100 µM (inactive) | > 100 µM (inactive) | > 100 µM (inactive) | 7.5 µM (inactive) | > 100 µM (inactive) | > 100 µM (inactive) | > 100 µM (inactive) | > 100 µM (inactive) | > 100 µM (inactive) | > 100 µM (inactive) | > 100 µM (inactive)
CSC1(SC)N2Cc3ccccc3N=C2C1(c1ccccc1)c1ccccc1 | 12.1 | 11.1 µM (inactive) | > 44.9 µM (inactive) | 4.12 µM (inactive) | 12.2 µM (inactive) | 29.2 µM (inactive) | > 100 µM (inactive) | 13 µM (inactive) | 12 µM (inactive) | 5.38 µM (inactive) | 7.48 µM (inactive) | 12.3 µM (inactive) | 38.1 µM (inactive) | 8.22 µM (inactive) | > 40.1 µM (inactive) | 11.6 µM (inactive) | 24.8 µM (inactive) | 13 µM (inactive) | 6.67 µM (inactive)
CCCCCCCCOCC1S(=O)(=O)OCCOS1(=O)=O | > 100 | > 100 µM (inactive) | > 100 µM (inactive) | > 100 µM (inactive) | > 100 µM (inactive) | > 100 µM (inactive) | > 100 µM (inactive) | > 100 µM (inactive) | > 100 µM (inactive) | > 100 µM (inactive) | > 100 µM (inactive) | > 100 µM (inactive) | > 100 µM (inactive) | > 100 µM (inactive) | > 100 µM (inactive) | > 100 µM (inactive) | > 100 µM (inactive) | > 100 µM (inactive) | > 100 µM (inactive)
CN(C)CC1CCC/C(=C\c2ccc(OC(=O)c3ccc(Cl)cc3)cc2)C1=O (stereo not drawn) | 1.57 | 3.84 µM (inactive) | 3.99 µM (inactive) | 2.07 µM (inactive) | 1.68 µM (inactive) | 1.58 µM (inactive) | 4.12 µM (inactive) | 1.1 µM (active) | 6.04 µM (inactive) | 0.465 µM (active) | 5.36 µM (inactive) | 0.493 µM (active) | 3.15 µM (inactive) | 2.55 µM (inactive) | 2.25 µM (inactive) | 1.95 µM (inactive) | 1.5 µM (inactive) | 4.29 µM (inactive) | 2.34 µM (inactive)
CC1CC2(OC2C)C(=O)OC2CCN(C)C/C=C(/COC(=O)C1(C)O)C2=O (stereo not drawn) | > 100 | > 100 µM (inactive) | > 100 µM (inactive) | > 100 µM (inactive) | > 100 µM (inactive) | > 100 µM (inactive) | > 100 µM (inactive) | > 100 µM (inactive) | > 100 µM (inactive) | > 100 µM (inactive) | > 100 µM (inactive) | > 100 µM (inactive) | > 100 µM (inactive) | > 100 µM (inactive) | > 100 µM (inactive) | > 100 µM (inactive) | > 100 µM (inactive) | > 100 µM (inactive) | > 100 µM (inactive)
